Laboratory results as given in patent EP0579833B1, “ETHANOLAMINE DERIVATIVES WITH ANTI-POLLAKIURIA ACTIVITY” (FUJISAWA PHARMACEUTICAL CO., LTD., priority 1991, dated 1992).
pIC50: −log10 of the molar value.

How the values were obtained:
[1] = tested on: isolated rat distal colon; experiment: Effect on isolated rat distal colon (spontaneous contractions, organ bath); assay type: tissue-based; conditions: spontaneous contractions of distal colon strip from male SD rats, Tyrode solution, 37°C, 0.5 g tension, observed over 30 minutes
Description: Male SD rats (l80∼230 g) were used. Animals were fasted for 24 hours prior to experiment. Distal colon was removed immediately after sacrifice and placed in an organ bath containing 25 ml Tyrode solution aerating with 95% O2, 5% CO2 at 37°C. The strip was mounted under 0.5 g tension and spontaneous contractions were recorded isometrically. After the motility was of a uniform size, test compound was added to an organ bath and the contractions were observed over a 30 minutes period. Effect of test compound was calculated by comparing contractions before and after test compound.

[2] = tested on: isolated non-pregnant rat uterus; experiment: Effect on isolated non-pregnant rat uterus (spontaneous contractions, organ bath); parameters: species or system tissue; conditions: spontaneous contractions of uterine horn strip from estradiol-treated female SD rats, Locke solution, 37°C, 1 g tension, observed over 20 minutes
Description: Female SD rats (l50∼l80 g) were used. 48 and 24 hours prior to use, rats were given estradiol (ovahormon benzoat : Trademark, Teikoku Hormone Mfg. Co., Ltd.) subcutaneously at a dose of 40 µg/rat to induce oestrus. The animals were killed and uterine horns were removed. Each strip was placed in an organ bath containing 25 ml Locke solution aerating with 95% O2, 5% CO2 at 37°C under l g tension. Contractions were recorded isometrically. After the spontaneous contractions were of a uniform size, test compound was added to organ bath. The motility was observed over a 20 minutes period. Effect of test compound was calculated by comparing contractions before and after test compound.

## (1R,1'R,2'R)- and (1R,1'S,2'S)-1-(3-chlorophenyl)-2-[(7-ethoxycarbonylmethoxy-l-hydroxy-l,2,3,4-tetrahydro-2- naphthyl)amino]ethanol hydrochloride [Example 2]
[1]
  pIC50: 8.72
[2]
  pIC50: 6.29
